Reference: PMC7910394, “Design of PSMA ligands with modifications at the inhibitor part: an approach to reduce the salivary gland uptake of radiolabeled PSMA inhibitors?” (EJNMMI Radiopharmacy and Chemistry, 2021)
Like-named read-outs stand apart in the source and are kept apart here.

Tests used:
PSMA = biological target: T1, PSMA (Homo sapiens, UniProt Q04609); test: Competitive binding assay (IC50) on LNCaP cells with ([125I]I-BA)KuE as radioligand; details: ([125I]I-BA)KuE 0.2 nM, HBSS (1% BSA), 4 °C, 1 h
T1 construct: host or cells: LNCaP human prostate cancer cells
Description: (§1) PSMA-positive LNCaP cells (300265; Cell Lines Service, Eppelheim, Germany) were cultivated in Dulbecco’s modified Eagle medium/Nutrition Mixture F-12 with GlutaMAX (1/1, DMEM-F12, Thermo Fisher Scientific, Darmstadt, Germany) supplemented with 10% fetal bovine serum (Merck KGaA, Darmstadt, Germany) and kept at 37 °C in a humidified 5% CO2 atmosphere. One day (24 ± 2 h) prior to all in vitro experiments, the cultivated LNCaP cells were harvested using a mixture of trypsin/ethylenediamine-tetraacetic acid (0.05%/0.02%) in PBS (Thermo Fisher Scientific, Darmstadt, Germany) and centrifuged at 1300 rpm (ca. 190×g) for 3 min at room temperature (Heraeus Megafuge 16, Thermo Fisher Scientific, Darmstadt, Germany). After centrifugation, the supernatant was disposed and the cell pellet was resuspended in culture medium. Cells were counted with a Neubauer hemocytometer (Paul Marienfeld GmbH & Co. KG, Lauda-Königshofen, Germany) and seeded in 24-well plates.
(§2) Detailed information on affinity and internalization experiments is provided in the supporting information. […] IC50 values of (^natI-BA)KuE were determined on the same day for monitoring assay performance and to identify abnormal deviations in uptake and/or affinity. […] Data were corrected for non-specific binding and normalized to the specific internalization observed for the radioiodinated reference compound (n = 3).
The culture medium was removed and the cells were washed with 500 µL of Hank’s balanced salt solution (HBSS) (Merck KGaA, Darmstadt, Germany), containing 1% bovine serum albumin (BSA) (Merck KGaA, Darmstadt, Germany). Afterwards, 200 µL of HBSS (1% BSA) were added to each well and equilibrated on ice (4 °C) for 15 min. […] Experiments were carried out in triplicates for each concentration. The final concentrations of unlabeled ligand ranged from 10^-11 - 10^-5 M and the final radioligand concentration was 0.2 nM in all binding assays. The cells were incubated for one hour at 4 °C. Incubation was terminated by removal of the incubation medium. The cells were washed with 250 µL of HBSS (1% BSA) and the wash medium was combined with the respective supernatant. This fraction represents the amount of free radioligand. The cells were lysed by addition of 250 µL of 1 M aqueous NaOH. The lysate of each well was transferred to the respective vial as well as 250 µL of 1 M NaOH used for rinsing the well. Quantification of the amount of free and bound activity was performed in a γ-counter. The corresponding IC50 values were calculated using the GraphPad PRISM7 software.

[1] = test system: LNCaP tumor xenograft-bearing CB17-SCID mice; type: in vivo, mouse
Description: All animal experiments were conducted in accordance with general animal welfare regulations in Germany (German animal protection act, as amended on 18.05.2018, Art. 141 G v. 29.3.2017 I 626, approval no. 55.2–1-54-2532-71-13) and the institutional guidelines for the care and use of animals. To establish tumor xenografts, LNCaP cells (approx. 10^7 cells) were suspended in 200 μL of a 1/1 mixture (v/v) of DMEM F-12 and Matrigel (BD Biosciences, Heidelberg, Germany) and inoculated subcutaneously onto the right shoulder of 6–8 weeks old CB17-SCID mice (Charles River Laboratories, Sulzfeld, Germany). Mice were used for experiments when tumor size reached 5–10 mm in diameter (3–6 weeks after inoculation).
(§3) Approximately 2–10 MBq (0.20 nmol) of the ^177Lu-labeled PSMA inhibitors were injected into the tail vein of LNCaP tumor xenograft-bearing male CB17-SCID mice (n = 3 to 5). They were sacrificed by CO2 asphyxiation and cervical dislocation either 1 h or 24 h post injection (p.i.) (n = 3 for [^177Lu]Lu-5, -6 & -7 (proinhibitor compounds I-III), n = 4 for [^177Lu]Lu-10 (alkyne), n = 5 for [^177Lu]Lu-3 (carbamate I) and n = 5 for [^177Lu]Lu-11 (tetrazole)). Selected organs were removed, weighed and organ activities measured in a γ-counter.
as §3, with “2 - 10” for “2–10”, “(alkyne) and” for “(alkyne),”

LNCaP cells = test: Internalization study of 177Lu-labeled ligands in LNCaP cells, normalized to ([125I]I-BA)KuE; type: cell-based, human; details: 1 h, 37 °C, 1.0 nM 177Lu-compound, normalized to ([125I]I-BA)KuE
Description: as §1, §2
The culture medium was removed and the cells were washed with 500 µL of DMEM-F12 containing 5% BSA. Afterwards, 200 µL of DMEM-F12 (5% BSA) were added to each well and left to equilibrate at 37 °C for 15 min. 25 µL of DMEM-F12 (5% BSA) were added to each well, followed by the addition of 25 µL of the respective ^177Lu-labeled ligand (10.0 nM in DMEM-F12 (5% BSA)). For blocking PSMA-specific binding and uptake, 25 µL of 2-(phosphonomethyl)pentane-1,5-dioic acid (2-PMPA) (100 µM in DMEM (5% BSA)) instead of DMEM-F12 (5% BSA) were added prior to radiotracer addition. […] Each experiment (control and blockade) was performed in triplicate. […] Incubation was terminated by placing the plate on ice (4 °C, 1 min) and removal of the incubation medium. The cells were washed with 250 µL of ice-cold PBS and the wash medium was combined with the respective supernatant. This fraction represents the amount of free radioligand. 250 µL of ice-cold 2-PMPA (10 µM in PBS) were added and the cells were incubated for 10 min at 4 °C. Afterwards, the cells were rinsed again with 250 µL of ice-cold PBS and the wash medium was combined with the respective supernatant. This fraction represents the amount of cell surface-bound ligand. In the last step, the cells were lysed by addition of 250 µL of 1 M aqueous NaOH. After 20 min, the lysate of each well was transferred to the respective vial as well as 250 µL of 1 M NaOH used for rinsing the well. This fraction represents the amount of internalized radioligand. Quantification of the amount of free, cell surface-bound and internalized activity was performed in a γ-counter.

T1 sequence (Q04609 whole entry): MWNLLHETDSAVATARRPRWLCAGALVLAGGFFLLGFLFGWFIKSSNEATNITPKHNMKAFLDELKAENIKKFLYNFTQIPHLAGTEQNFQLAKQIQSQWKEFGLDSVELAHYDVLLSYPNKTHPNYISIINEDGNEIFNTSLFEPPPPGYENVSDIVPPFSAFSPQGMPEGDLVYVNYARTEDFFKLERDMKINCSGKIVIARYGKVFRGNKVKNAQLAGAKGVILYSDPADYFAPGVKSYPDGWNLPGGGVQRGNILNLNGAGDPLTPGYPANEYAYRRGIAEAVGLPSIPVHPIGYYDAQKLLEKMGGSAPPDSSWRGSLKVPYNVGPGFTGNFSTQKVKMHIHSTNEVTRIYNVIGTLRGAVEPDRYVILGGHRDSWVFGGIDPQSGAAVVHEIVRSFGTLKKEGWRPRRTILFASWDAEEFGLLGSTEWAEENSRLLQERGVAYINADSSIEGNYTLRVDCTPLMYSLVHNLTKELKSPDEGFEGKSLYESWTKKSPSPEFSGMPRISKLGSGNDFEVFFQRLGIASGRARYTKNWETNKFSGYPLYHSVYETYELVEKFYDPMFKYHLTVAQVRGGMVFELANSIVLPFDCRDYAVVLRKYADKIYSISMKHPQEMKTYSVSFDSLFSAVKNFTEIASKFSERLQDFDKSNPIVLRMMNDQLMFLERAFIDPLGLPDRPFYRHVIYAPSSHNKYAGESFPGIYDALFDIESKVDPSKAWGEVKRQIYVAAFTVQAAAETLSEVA

## CCCCC[C@H](NC(=O)N[C@@H](CCC(=O)N[C@H](CCCNC(=O)CCC(=O)NCCCC[C@@H](NC(=O)[C@@H](CNC(=O)c1ccc([Si](F)(C(C)(C)C)C(C)(C)C)cc1)NC(=O)CN1CCN(CC(=O)[O-])CCN(CC(=O)[O-])CCN(CC(=O)[O-])CC1)C(=O)O)C(=O)O)C(=O)O)C(=O)O.[Lu+3] [^natLu-8]
PSMA
  IC50: > 2 µM

## C#CC[C@H](NC(=O)N[C@@H](CCC(=O)N[C@H](CCCNC(=O)CCC(=O)NCCCC[C@@H](NC(=O)[C@@H](CNC(=O)c1ccc([Si](F)(C(C)(C)C)C(C)(C)C)cc1)NC(=O)CN1CCN(CC(=O)[O-])CCN(CC(=O)[O-])CCN(CC(=O)[O-])CC1)C(=O)O)C(=O)O)C(=O)O)C(=O)O.[Lu+3] [^natLu/[^177Lu]Lu-10]
[1]; 24 h p.i.
  Biodistribution Adrenals: 0.02 ± 0.02 % ID/g
  Biodistribution Blood: 0.01 ± 0.01 % ID/g
  Biodistribution Bone: 0.03 ± 0.01 % ID/g
  Biodistribution Heart: 0.01 ± 0.00 % ID/g
  Biodistribution Intestine: 0.32 ± 0.29 % ID/g
  Biodistribution Kidneys: 1.29 ± 0.28 % ID/g
  Biodistribution Liver: 0.09 ± 0.04 % ID/g
  Biodistribution Lung: 0.03 ± 0.03 % ID/g
  Biodistribution Pancreas: 0.01 ± 0.01 % ID/g
  Biodistribution Parotid gland: 0.02 ± 0.00 % ID/g
  Biodistribution Spleen: 0.04 ± 0.00 % ID/g
  Biodistribution Stomach: 0.12 ± 0.11 % ID/g
  Biodistribution Submandibular gland: 0.02 ± 0.00 % ID/g
  Biodistribution Tumor: 0.10 ± 0.03 % ID/g
  Ratio Tumor-to-blood: 26.8 ± 16.9
  Ratio Tumor-to-kidney: 0.08 ± 0.01
  Ratio Tumor-to-liver: 1.46 ± 0.88
  Ratio Tumor-to-muscle: 27.7 ±10.9
  Ratio Tumor-to-parotid gland: 6.38 ± 3.06
  Ratio Tumor-to-submandibular gland: 6.11 ± 1.78
  factor by which tumor-to-submandibular gland and tumor-to-parotid gland ratios are lower than for [177Lu]Lu-1: 45
PSMA
  IC50: 0.138 ± 0.053 µM
LNCaP cells
  %Internalization compared to the reference: 1 h: 1.2 ± 0.4%
LNCaP cells; listed as [^177Lu]Lu-10
  %Internalization compared to the reference: 1.2 ± 0.4%

## CC(C)(C)[Si](F)(c1ccc(C(=O)NC[C@@H](NC(=O)CN2CCN(CC(=O)[O-])CCN(CC(=O)[O-])CCN(CC(=O)[O-])CC2)C(=O)N[C@H](CCCCNC(=O)CCC(=O)NCCC[C@@H](NC(=O)CC[C@H](NC(=O)N[C@@H](Cc2ccco2)C(=O)O)C(=O)O)C(=O)O)C(=O)O)cc1)C(C)(C)C.[Lu+3] [^natLu-9]
PSMA
  IC50: > 0.44 µM

## CC(C)(C)[Si](F)(c1ccc(C(=O)NC[C@@H](NC(=O)CN2CCN(CC(=O)[O-])CCN(CC(=O)[O-])CCN(CC(=O)[O-])CC2)C(=O)N[C@H](CCCCNC(=O)CCC(=O)NCCC[C@@H](NC(=O)CC[C@H](NC(=O)O[C@@H](CCC(=O)O)C(=O)O)C(=O)O)C(=O)O)C(=O)O)cc1)C(C)(C)C.[Lu+3] [^natLu/[^177Lu]Lu-3]
[1]; 1 h p.i.
  Biodistribution Adrenals: 1.46 ± 0.70 % ID/g
  Biodistribution Blood: 0.97 ± 0.18 % ID/g
  Biodistribution Bone: 0.18 ± 0.02 % ID/g
  Biodistribution Heart: 0.36 ± 0.04 % ID/g
  Biodistribution Intestine: 0.36 ± 0.17 % ID/g
  Biodistribution Kidneys: 61.8 ± 25.9 % ID/g
  Biodistribution Liver: 0.87 ± 0.28 % ID/g
  Biodistribution Lung: 2.88 ± 2.96 % ID/g
  Biodistribution Muscle: 0.13 ± 0.04 % ID/g
  Biodistribution Pancreas: 0.25 ± 0.06 % ID/g
  Biodistribution Parotid gland: 0.62 ± 0.20 % ID/g
  Biodistribution Spleen: 2.51 ± 0.95 % ID/g
  Biodistribution Stomach: 0.30 ± 0.09 % ID/g
  Biodistribution Submandibular gland: 0.37 ± 0.08 % ID/g
  Biodistribution Tumor: 5.31 ± 0.94 % ID/g
  Ratio Tumor-to-blood: 5.57 ± 1.18
  Ratio Tumor-to-kidney: 0.09 ± 0.03
  Ratio Tumor-to-liver: 6.61 ± 2.19
  Ratio Tumor-to-muscle: 44.1 ± 9.0
  Ratio Tumor-to-parotid gland: 9.09 ± 3.13
  Ratio Tumor-to-submandibular gland: 14.7 ± 3.5
[1]; 24 h p.i.
  Biodistribution Adrenals: 0.04 ± 0.01 % ID/g
  Biodistribution Bone: 0.02 ± 0.01 % ID/g
  Biodistribution Heart: 0.02 ± 0.01 % ID/g
  Biodistribution Intestine: 0.12 ± 0.06 % ID/g
  Biodistribution Kidneys: 0.31 ± 0.05 % ID/g
  Biodistribution Liver: 0.13 ± 0.05 % ID/g
  Biodistribution Lung: 0.03 ± 0.01 % ID/g
  Biodistribution Muscle: 0.01 ± 0.01 % ID/g
  Biodistribution Pancreas: 0.02 ± 0.01 % ID/g
  Biodistribution Parotid gland: 0.04 ± 0.02 % ID/g
  Biodistribution Spleen: 0.09 ± 0.01 % ID/g
  Biodistribution Stomach: 0.06 ± 0.04 % ID/g
  Biodistribution Submandibular gland: 0.03 ± 0.01 % ID/g
  Biodistribution Tumor: 1.20 ± 0.55 % ID/g
  Ratio Tumor-to-blood: 947 ± 652
  Ratio Tumor-to-kidney: 3.80 ± 1.36
  Ratio Tumor-to-liver: 8.94 ± 2.94
  Ratio Tumor-to-muscle: 127 ± 92
  Ratio Tumor-to-parotid gland: 31.8 ± 9.3
  Ratio Tumor-to-submandibular gland: 34.5 ± 9.2
  factor by which tumor-to-submandibular gland and tumor-to-parotid gland ratios are lower than for [177Lu]Lu-1: 8
PSMA
  IC50: 0.0071 ± 0.0007 µM
LNCaP cells
  %Internalization compared to the reference: 1 h: 67.8 ± 0.5%
